According to patent US20040170591A1, “Dermatological composition comprising nicotinic acid or an amide, and a sphingoid base” (priority 2001, published 2004):

System: inflammatory acne of the face
Assay: Clinical trial in patients with inflammatory acne of the face
Format: in vivo, human patients
Details: 10 patients 14 to 23 years old; benzoyl peroxide 4 cases, erythromycin 3 cases, nicotinamide gel 3 cases
Excerpt: The composition used is a gel in accordance with that whose composition is given in example 2.

SMILES | improvement of acne with conventional treatment
O=C(OOC(=O)c1ccccc1)c1ccccc1 [benzoyl peroxide] | no notable improvement
CC[C@H]1OC(=O)[C@H](C)[C@@H](O[C@H]2C[C@@](C)(OC)[C@@H](O)[C@H](C)O2)[C@H](C)[C@@H](O[C@@H]2O[C@H](C)C[C@H](N(C)C)[C@H]2O)[C@](C)(O)C[C@@H](C)C(=O)[C@H](C)[C@@H](O)[C@]1(C)O [erythromycin] | no notable improvement
